This is an account of results in publication PMC11061149, “Protein mimetic 2D FAST rescues alpha synuclein aggregation mediated early and post disease Parkinson’s phenotypes” (Nature Communications, 2024).

Values joined by “and” are separate entries in the source; they are usually repeats but may differ in a detail not shown here. Equal entries are not always repeated.

In one data set the target is T1, αS aggregation (Homo sapiens, UniProt P37840).
T1 construct: made in house; host or cells: E. coli BL21(DE3)
Put plainly: SDS-PAGE gel shift assay of soluble and insoluble αS fractions. It is filed as biochemical. To be noted: for αS band intensity, Total: individual trials. An excerpt: The inhibition of αS aggregation by NS41 was also confirmed by TEM images, which show an abundance (Supplementary Fig. 3a) and low amount (Supplementary Fig. 3b) of αS fibers in the absence and presence of NS41, respectively. We used SDS-PAGE (Sodium dodecyl sulfate polyacrylamide gel electrophoresis) as a complementary assay to validate ThT results and to further characterize the antagonist activity of the monopyridyls against αS aggregation. We used a total of four monopyridyls with varying antagonist activity against αS aggregation for the SDS-PAGE assay. The solutions of αS (±monopyridyls) were centrifuged and the soluble and insoluble fractions were subjected to SDS-PAGE analysis as reported earlier (Fig. 2d, Supplementary Fig. 4a, see details in methods section). The band intensities of the gels in SDS-PAGE assay were quantified using ImageJ software. In the absence of ligands, ~12% of αS was found in the soluble fraction and the rest was found in the insoluble fraction (Fig. 2d, Supplementary Fig. 4a, b). In the presence of NS41 at molar ratios of 1:1 and 2:1 (NS41:αS), 48% and 73% of αS protein were found in the soluble fraction, respectively, and the rest of αS protein was found in the insoluble fraction (Fig. 2d, Supplementary Fig. 4a, b). […] The antagonist activity of the monopyridyls corroborated well from both ThT and the SDS-PAGE assays (Fig. 2a–d, Supplementary Fig. 4a, b). The higher the antagonist activity of monopyridyls against αS aggregation, the lower the ThT intensity and the higher the amount of αS remained in the soluble fraction (Fig. 2a–d, Supplementary Fig. 4a, b). […] It is important to note that NS41 contains a carboxyl (COOH) functional group side chain. […] We have also shown in that work that the foldamer binds to the N-terminus of αS because of its negatively charged COOH functional group interaction with the positively charged lysine residues of αS[24]. […] Additionally, we have also shown that the OPs with the COOH functional group are very effective inhibitors of aggregation of other amyloid proteins that contain lysine amino acid via the formation of salt bridges[30]–[34].
An αS solution (100 µM) was prepared in PBS with or without ligands and shaken ([…], 37 °C) until the fluorescence plateaued, as observed using the ThT aggregation assay, indicative of the aggregation of αS as a control (four days for most experiments unless otherwise mentioned). The solutions were separated into soluble and insoluble fractions by centrifugation at 22,000 × g for 20 min. The fractions were diluted in 2×Laemmli protein sample loading buffer (Containing 2.1% SDS, Bio-rad, Hercules, CA), boiled at 95 °C for 5 min, and ran on a 12% Mini-PROTEAN precast protein gel (Bio-rad, Hercules, CA). The gel was visualized using ChemiDoc MP Imaging System (Bio-rad, Hercules, CA) and band intensity was quantified using Image Lab image acquisition and analysis software (Bio-rad, Hercules, CA). Densitometry values were averaged from three technical replicates and reported with the error bars representing their standard deviations.
Background: In EMSA bound probe runs differently from free probe, usually more slowly.

The target in a further data set is T2, αS fibers (Homo sapiens, UniProt P37840).
T2 construct: made in house; host or cells: E. coli BL21(DE3)
Put plainly: Transmission electron microscopy (TEM) of αS solutions. Format: biochemical. To be noted: 100 µM αS aggregated for four days with ligand. The method, then:
Transmission Electron Microscopy was used to visualize protein assemblies after aggregation experiments as previously described. Briefly, aliquots (5 μL) of αS solutions (with or without ligands) were applied on glow-discharged carbon-coated 300-mesh copper grids for 2 min and dried using Kimwipes (Kimberly-Clark, Irving, TX). The copper grids were negatively stained for 1 min with uranyl acetate (0.75%, w/v). The micrographs were taken on an FEI Tecnai G2 Biotwin TEM at 80 kV accelerating voltages.

For data set [1], the target named is T3, α-Synuclein (αS) aggregation (Homo sapiens, UniProt P37840).
T3 construct: made in house; host or cells: E. coli BL21(DE3)
As to the kind of experiment: Thioflavin T (ThT) dye-based αS aggregation assay (de novo). Format: biochemical. Conditions: for ThT intensity relative to Synuclein alone (=1), Average / ThT intensity relative to Synuclein alone (=1), Trial 1-3: 100 µM αS, four days; for remaining activity at 100 µM: 96 h, pH 6.5, 100 μM αS, 1×PBS pH 6.5, four days, ligand:αS equimolar, read-out: ThT signal/intensity relative to αS alone (100%). The method, then:
We used a 2D FAST approach in OPs to identify potent antagonists of the aggregation of αS. In this approach, we start with a library of monopyridyls with different functional groups. The library of monopyridyls was synthesized using 2-chloro-6-methyl-3-nitropyridine as a common precursor, which was treated with primary alcohols with diverse side chain functionalities via a one-pot reaction (Fig. 1B, a and see Supplementary information for synthetic details). […] We selected the side chains containing hydrophobic, polar, positively charged, and negatively charged functional groups, which mimic the side chains of the amino acids (Fig. 1C). […] The monopyridyl library was screened against the aggregation of 100 μM αS at an equimolar ratio using Thioflavin T (ThT) dye-based aggregation assay (Fig. 1B, b). […] The chloro-dipyridyl was reacted with a library of primary amines/thiols to synthesize a library of dipyridyls (Fig. 1B, e) using a one-pot reaction. […] However, a few dipyridyls required column chromatography to separate them from the starting material side chains because of their very high boiling point (7 out of 21 dipyridyls required column, Supplementary Fig. 1). […]
Aggregation Kinetics were measured according to a previously described protocol. […] The solutions were placed in a ThermoMixer (Eppendorf, Hamberg, Germany) at 37 °C with constant shaking at 1300 rpm (rpm). At different time points, 5 μL aliquots of each αS solution were added to 95 μL PBS containing 50 μM Thioflavin T (ThT) dye in a Costar black 96 well plate (Corning Inc., Kennebunk, ME). ThT fluorescence intensity was measured (λex = 450 nm and λem = 490 nm) on an Infinite M200PRO plate reader (Tecan, Männedorf, Switzerland), and plotted against time to give a sigmoidal curve typical of amyloid aggregation. For the single point ThT aggregation, 100 μM αS, in the absence and presence of ligands, was aggregated under the described conditions and the ThT fluorescence was reported at 96 h. The reported ThT intensity values are the average of each experiment conducted in triplicate, with the error bars representing the standard deviations or standard error of the mean (s.e.m.) as described in the main manuscript.

The test system of a further data set is UA196 worms. As to the kind of experiment: Motility assay of UA196 worms in the presence of dopamine and NS163. It is filed as in vivo, C. elegans. To be noted: for Motility of worms, UA196+Dopamine: individual trials. The procedure:
This motility assay was performed exactly as the previous assay with slight adjustment in the preparation of the plates for the treatment of UA196 worms. For this assay, the only difference is the 24 well plates were prepared with 2 mM dopamine (referred to as PLATE 5) and both 2 mM dopamine and 50 µM NS163 (referred to as PLATE 6). To prepare PLATE 5, the NGM media containing 75 µM FUDR was autoclaved and poured in NGM plates (2 mL total liquid). After 12 h, the NGM plates were seeded with 350 µL of OP50 (with OD = 0.5 at 600 nm) at 20 °C. After 12 h, 2 mM dopamine dissolved in M9 buffer (total volume = 300 µL) was spotted atop the NGM plates at 20 °C. To prepare PLATE 6, the NGM media containing 75 µM FUDR was autoclaved and poured in NGM plates (2 mL total liquid). After 12 h, the NGM plates were seeded with 350 µL of OP50 (with OD = 0.5 at 600 nm) at 20 °C. After 12 h, NS163 (50 µM, stock conc. = […] in DMSO) and dopamine (2 mM in M9 buffer) were dissolved in M9 buffer (total volume = 300 µL) and were spotted atop the NGM plates at 20 °C. The NGM plates treated with dopamine and NS163 and dopamine were placed in sterile laminar flow hood at 20 °C for 1 h. The NGM plates treated with dopamine and NS163 and dopamine were prepared and used within 24 h.
There were six conditions for this experiment: (1) N2 worms, (2) N2 worms treated with 2 mM dopamine, (3) UA196 worms, (4) UA196 worms treated with 2 mM dopamine, (5) UA196 worms treated with 50 µM NS163, and (6) UA196 worms treated with 2 mM dopamine and 50 µM NS163. For each condition, four biological replicates were performed, and each biological replicate consisted of four technical replicates (four wells). For each condition, the data were expressed as mean and the error bars report the s.e.m. (n = 4 independent experiments and each n consisted of a total of four technical replicates).

For `Cc1ccc(NC(=O)c2ccc([N+](=O)[O-])c(NCC3CCCCC3)n2)c(OCC(=O)O)n1` [NS55], the “amount of αS in the insoluble fraction” value on αS aggregation (100 µM αS, four days, equimolar) stood at 26%. Moreover, at αS aggregation (sheet S5B), the “αS band intensity, Total, Average” value turned out to be 100. For the same compound, the “αS band intensity, Total” value at αS aggregation (sheet S5B) was 95.6 and 105.4 and 99. For the same compound, the “distribution of αS between soluble and insoluble fraction, in words” value at αS aggregation (substoichiometric ratio αS:ligand 1:0.5) was “a significant amount of αS protein was found in the insoluble form”. In addition, the “αS fibers seen in TEM images, in words” value at αS fibers was “no”. The “ThT fluorescence intensity, Average” value in data set [1] (100 µM αS + equimolar ligand, aggregation profile Fig. 2h, time 0 hr) worked out at 638.333; in data set [1] (Fig. 2h profile, time 12 hr), 699.667; in data set [1] (Fig. 2h profile, time 24 hr), 689.333; in data set [1] (Fig. 2h profile, time 48 hr), 722.667; in data set [1] (Fig. 2h profile, time 72 hr), 793; in data set [1] (Fig. 2h profile, time 96 hr) it was 631.333. The “ThT fluorescence intensity, Average” value in data set [1] (Fig. 2h profile, time 144 hr) came out at 658.333; in data set [1] (Fig. 2h profile, time 192 hr), 603.333; in data set [1] (Fig. 2h profile, time 300 hr) it was 570.333. In addition, the “attenuation of the ThT signal of αS aggregation” value in data set [1] (100 μM αS, equimolar) was 96%. In addition, the “ThT intensity relative to Synuclein alone (=1), Average” value in data set [1] (equimolar) is reported as 0.04101; in data set [1] (substoichiometric αS:ligand 1:0.5), 0.7474. For the same compound, the “ThT intensity relative to Synuclein alone (=1), Trial 1-3” value is 0.05227 and 0.03887 and 0.03187 in data set [1] (equimolar, individual trials); 0.775 and 0.733 and 0.7343 in data set [1] (substoichiometric αS:ligand 1:0.5, individual trials). The remaining activity at 100 µM in data set [1] turned out to be 4%. For the same compound, the “Relative ThT intensity of αS aggregation, Average” value in data set [1] (sheet S5A, Synuclein alone about 1) amounted to 0.04101. For the same compound, the “Relative ThT intensity of αS aggregation” value in data set [1] (sheet S5A, Synuclein alone about 1, individual trials) was 0.05227 and 0.03887 and 0.03187.
In the case of `NCCc1ccc(O)c(O)c1` [dopamine], the “Motility of worms, UA196+Dopamine” value in the data set with UA196 worms (Day 4) was 146 and 123 and 134 and 157; in the data set on UA196 worms (Day 5), 129 and 128 and 126 and 106; in the data set with UA196 worms (Day 6), 99 and 108 and 117 and 122; in the data set on UA196 worms (Day 7), 108 and 102 and 112 and 99; with UA196 worms (Day 8), 108 and 103 and 97 and 100; with UA196 worms (Day 9) it was 93 and 88 and 92 and 89. For the same compound, the “Motility of worms, UA196+Dopamine” value was 87 and 88 and 92 and 89 with UA196 worms (Day 10); 75 and 62 and 83 and 87 in the data set with UA196 worms (Day 11); 72 and 83 and 69 and 65 with UA196 worms (Day 12); 51 and 78 and 67 and 62 in the data set on UA196 worms (Day 13). For the same compound, in the data set with UA196 worms (dopamine 2 mM, day two and four), the “motility of UA196 worms treated with dopamine, in words” value is on record as “much higher motility”.
Consider `Cc1ccc([N+](=O)[O-])c(OCC(=O)O)n1` [NS41], for which the “αS protein found in the soluble fraction” value on αS aggregation (100 µM αS, four days, NS41:αS 2:1) came to 73%; at αS aggregation (100 µM αS, four days, ligand:αS 1:1) it was 48%. Further, the “αS band intensity, Total, Average” value on αS aggregation (sheet S4B, ligand 1 eq.) was 100; at αS aggregation (sheet S4B, ligand 2 eq.) it was 100. The “αS band intensity, Total” value on αS aggregation (sheet S4B, ligand 1 eq.) was 95 and 102.5 (2×); on αS aggregation (sheet S4B, ligand 2 eq.), 96 and 102 (2×). The “αS fibers seen in TEM images, in words” value at αS fibers is listed as “low amount”. In addition, in data set [1] (100 μM αS, 1×PBS pH 6.5, NS41/αS 2:1), the “ThT signal relative to αS alone (100%)” value was determined as 17%. The results for the “ThT intensity relative to Synuclein alone (=1), Average” value in data set [1] (equimolar) and in data set [1] (ligand 2 mole Eq.) were 0.2889 and 0.162, respectively. The “ThT intensity relative to Synuclein alone (=1), Trial 1-3” value is 0.2946 and 0.2756 and 0.2964 in data set [1] (equimolar, individual trials); 0.1784 and 0.1666 and 0.1411 in data set [1] (ligand 2 mole Eq., individual trials). Also, the remaining activity at 100 µM in data set [1] is 29%.
